Laboratory results from ChEMBL document CHEMBL1201862, “PubChem BioAssay data set” (2004).
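Interpolation was linear, between the two tested concentrations surrounding the appropriate level; five concentrations were tested over 48 hours in 96-well plates. GI50 = concentration required for 50% inhibition of growth.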 Activity calls are given as the source filed them. Cut-off read from the data, not from the text of the source: active = GI50 up to about 1.1 µM and inactive = higher.

Key:
Assay in all cases: inhibition of tumour cell growth, NCI panel, 48 h
[1] = system: COLO 205
[2] = system: DU-145
[3] = system: HCC 2998
[4] = system: MDA-MB-231
[5] = system: NCI-H23
[6] = system: OVCAR-4
[7] = system: OVCAR-8
[8] = system: PC-3
[9] = system: RXF 393
[10] = system: SK-MEL-2
[11] = system: SK-MEL-5
[12] = system: SK-OV-3
[13] = system: SN12C
[14] = system: SNB-19
[15] = system: SW-620
[16] = system: TK-10
[17] = system: UACC-62
[18] = system: Malme-3M
[19] = system: MDA-N
[20] = system: CCRF-CEM

Measured: GI50

COc1ccc(C(C)c2cc3c(cc2O)OCO3)cc1 (stereo not given)
inactive: [1] 14.3 µM | [2] 18.6 µM | [3] 7.01 µM | [4] 14.2 µM | [5] 16.2 µM | [6] 31.3 µM | [7] 16.7 µM | [8] 15.7 µM | [9] 14.8 µM | [10] 14.9 µM | [11] 14.8 µM | [12] 19.7 µM | [13] 18.6 µM | [14] 23.5 µM | [15] 11.5 µM | [16] 16.3 µM | [17] 12.1 µM

COCN1C(=O)[C@@H]2CCCN2C(=O)c2cc([N+](=O)[O-])ccc21
inactive: [1] 81.3 µM | [2] 39.8 µM | [4] 61.1 µM | [18] 88.5 µM | [5] 86.7 µM | [6] 76.9 µM | [7] > 100 µM | [8] 36.3 µM | [9] 19 µM | [10] 64.1 µM | [11] 70.1 µM | [12] 44.7 µM | [13] > 100 µM | [14] 96.6 µM | [15] 65.8 µM | [16] > 100 µM | [17] 85.7 µM

O=C(/C=C/c1ccccc1)c1cc(C(=O)/C=C/c2ccccc2)c(O)cc1O
inactive: [1] > 100 µM | [3] 88.3 µM | [19] > 100 µM | [18] > 100 µM | [5] > 100 µM | [6] > 10 µM | [7] > 100 µM | [8] > 100 µM | [10] > 100 µM | [11] 69.3 µM | [12] > 100 µM | [13] > 100 µM | [14] > 100 µM | [15] > 100 µM | [16] > 100 µM | [17] 49.8 µM

CCOP(=O)(C=C=C1CCC2[C@@H]3CCc4cc(OC)ccc4C3CC[C@]12C)OCC (stereo not given in full)
inactive: [1] 10.5 µM | [2] 14 µM | [3] 12.1 µM | [19] 12.3 µM | [18] 15.6 µM | [5] 5.73 µM | [6] 6.24 µM | [7] 11 µM | [8] 3.92 µM | [9] 1.98 µM | [10] 12.9 µM | [11] 2.98 µM | [12] 16.7 µM | [13] 10.4 µM | [14] 13.6 µM | [15] 12 µM | [16] 12.7 µM | [17] 3.89 µM

CCC(=O)O[C@H]1CC[C@H]2[C@@H]3CCC4=C/C(=N/NC(=O)c5cccc6c(=O)c7ccccc7[nH]c56)CC[C@]4(C)[C@H]3CC[C@]12C
inactive: [20] > 25 µM | [1] > 25 µM | [3] > 25 µM | [4] > 25 µM | [19] > 25 µM | [5] > 25 µM | [6] > 25 µM | [7] > 25 µM | [8] > 25 µM | [9] > 25 µM | [10] > 25 µM | [11] > 25 µM | [12] > 25 µM | [13] > 25 µM | [14] > 25 µM | [15] > 25 µM | [16] > 25 µM | [17] > 25 µM

Nc1nc(N)c2ncn(Cc3ccccc3CCl)c2n1
inactive: [20] 88.1 µM | [1] > 100 µM | [2] > 100 µM | [4] > 100 µM | [18] > 100 µM | [5] > 100 µM | [6] 80.5 µM | [7] > 100 µM | [8] > 100 µM | [10] > 100 µM | [11] 51.1 µM | [12] > 100 µM | [13] > 100 µM | [14] > 100 µM | [15] > 100 µM | [16] > 100 µM | [17] > 100 µM

CCc1c2c(cc3c1CC1(C3)Cc3cc4c(c(C(=O)OC)c3C1)CCCC4)CCCC2 (stereo not given)
inactive: [20] 51.3 µM | [1] > 100 µM | [3] > 100 µM | [4] > 100 µM | [19] > 100 µM | [18] > 100 µM | [5] > 100 µM | [6] > 100 µM | [7] > 100 µM | [8] > 100 µM | [9] 59.4 µM | [10] > 100 µM | [11] > 100 µM | [12] > 100 µM | [13] > 100 µM | [16] > 100 µM | [17] 18.5 µM

Cc1cc(C)c(N[S+]([O-])c2ccc(Cl)cc2)c(C)c1 (stereo not given)
inactive: [20] > 100 µM | [1] > 100 µM | [2] > 100 µM | [3] 83.4 µM | [19] 71.1 µM | [18] > 100 µM | [5] > 100 µM | [7] > 100 µM | [8] > 100 µM | [9] > 100 µM | [13] > 100 µM | [14] > 100 µM | [15] > 100 µM | [16] > 100 µM

Cc1cc2[nH]c3c(C#N)c(-c4ccccc4)c(/C=N/c4cccc(C(F)(F)F)c4)c(=O)n3c2cc1C
inactive: [20] 72.8 µM | [1] > 100 µM | [3] > 100 µM | [4] > 100 µM | [19] 79.3 µM | [18] > 100 µM | [5] > 100 µM | [6] 99.5 µM | [7] > 100 µM | [8] > 100 µM | [9] 37 µM | [10] > 100 µM | [11] > 100 µM | [12] 99.5 µM | [13] 89.9 µM | [14] > 100 µM | [15] 59.7 µM | [16] > 100 µM

O=c1cc(N2CCCC2)[nH]c(=O)n1Cc1ccccc1
inactive: [20] > 100 µM | [1] > 100 µM | [2] > 100 µM | [3] 8.55 µM | [4] > 100 µM | [18] > 100 µM | [5] > 100 µM | [6] > 100 µM | [7] > 100 µM | [8] > 100 µM | [10] > 100 µM | [11] > 100 µM | [13] > 100 µM | [14] > 100 µM | [15] > 100 µM | [16] > 100 µM

O=C(COc1ccc(Cl)c(Cl)c1)Nc1ccc[n+](Cc2ccc(S(=O)(=O)F)c(Cl)c2)c1
inactive: [1] > 100 µM | [2] > 100 µM | [4] 36.6 µM | [18] 51.2 µM | [5] > 100 µM | [6] > 100 µM | [7] > 100 µM | [8] > 100 µM | [9] > 100 µM | [10] > 100 µM | [11] > 100 µM | [12] > 100 µM | [13] 98.4 µM | [14] > 100 µM | [15] > 100 µM | [16] > 100 µM | [17] > 100 µM

Nc1ccc2nc(-c3cccc(Cl)c3)cc(O)c2c1
inactive: [20] 2.14 µM | [1] 4.81 µM | [3] 6.73 µM | [4] 26.5 µM | [18] 3.26 µM | [5] 5.79 µM | [7] 18 µM | [8] 2.47 µM | [11] 3.58 µM | [12] 4.82 µM | [13] 8.38 µM | [14] 5.83 µM | [15] 3.55 µM | [16] 2.65 µM | [17] 3.14 µM
